# Experimental data taken from patent publication US6737383B1, “Herbicidal oxadiazolidines” (priority 1999, dated 2004).
# Assays:
# velvetleaf = assay: Test B pre/postemergence velvetleaf; format: in vivo, Abutilon theophrasti
# Method in brief: (§1)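 Test chemicals in a non-phytotoxic solvent mixture with surfactant were sprayed preemergence onto planted seeds and postemergence onto plants 2 to 18 cm tall (1- to 4-leaf stage). After twelve to sixteen days in a greenhouse, injury was visually rated against untreated controls from 0 (no effect) to 10 (complete control).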
# wheat = assay: Test B pre/postemergence wheat; format: in vivo, Triticum aestivum
# Method in brief: as §1
# giant foxtail = assay: Test B pre/postemergence giant foxtail; format: in vivo, Setaria faberii
# Method in brief: as §1
# cocklebur = assay: Test B pre/postemergence cocklebur; format: in vivo, Xanthium strumarium
# Method in brief: as §1
# crabgrass = assay: Test B pre/postemergence crabgrass; format: in vivo, Digitaria sanguinalis
# Method in brief: as §1
# surinam grass = assay: Test B pre/postemergence surinam grass; format: in vivo, Brachiaria decumbens
# Method in brief: as §1
# rape = assay: Test B pre/postemergence rape; format: in vivo, Brassica napus
# Method in brief: as §1
# purple nutsedge = assay: Test B pre/postemergence purple nutsedge; format: in vivo, Cyperus rotundus
# Method in brief: as §1
# duck salad = assay: Test B flood test duck salad; format: in vivo, Heteranthera limosa
# Method in brief: (§2)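 Plants were grown to the 2-leaf stage before treatment with test chemical, then held in a greenhouse for twelve to sixteen days. Injury was visually rated against untreated controls on a 0–10 scale, where 0 is no effect and 10 is complete control.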
# corn = assay: Test B pre/postemergence corn; format: in vivo, Zea mays
# Method in brief: as §1
# sugar beet = assay: Test B pre/postemergence sugar beet; format: in vivo, Beta vulgaris
# Method in brief: as §1
# rice = assay: Test B flood test rice; format: in vivo, Oryza sativa
# Method in brief: as §2
# morningglory = assay: Test B pre/postemergence morningglory; format: in vivo, Ipomoea hederacea
# Method in brief: as §1
# pigweed = assay: Test B pre/postemergence pigweed; format: in vivo, Amaranthus retroflexus
# Method in brief: as §1
# smallflower flatsedge = assay: Test B flood test smallflower flatsedge; format: in vivo, Cyperus difformis
# Method in brief: as §2
# blackgrass = assay: Test B pre/postemergence blackgrass; format: in vivo, Alopecurus myosuroides
# Method in brief: as §1
# [1] = Postemergence, Rate 62 g/ha, scale 0 to 10, 0 is no effect, 10 is complete control
# [2] = Postemergence, Rate 250 g/ha, scale 0 to 10, 0 no effect, 10 complete control
# [3] = Preemergence, Rate 62 g/ha, scale 0 to 10, 0 is no effect, 10 is complete control
# [4] = Preemergence, Rate 125 g/ha, scale 0 to 10 (0 no effect, 10 complete control)
# [5] = Preemergence, Rate 250 g/ha, scale of 0 to 10 where 0 is no effect and 10 is complete control
# [6] = Preemergence, Rate 500 g/ha, scale 0 (no effect) to 10 (complete control)
# [7] = Rate 125 g/ha, Postemergence, scale 0 to 10, 0 no effect, 10 complete control
# [8] = Rate 500 g/ha, Postemergence, 0 to 10 scale (0 no effect, 10 complete control)
# [9] = Rate 31 g/ha, Postemergence section (flood test species), scale 0 to 10
# [10] = Rate 125 g/ha, Postemergence section (flood test species), scale 0 to 10, 0 no effect, 10 complete control
# [11] = flood test, listed under Postemergence, Rate 250 g/ha, scale 0 to 10, 0 no effect, 10 complete control
structure (smiles),measurement,setting,value
CC(C)N(C(=O)n1oc(=O)n(-c2ccccc2OC(F)(F)F)c1=O)c1ccc(F)cc1 [Compound 14],Velvetleaf plant response rating,velvetleaf; [1],0
same,Velvetleaf plant response rating,velvetleaf; [2],0
same,"Plant response rating, Velvetleaf",velvetleaf; [3],0
same,"Plant response rating, Velvetleaf",velvetleaf; [4],0
same,"Plant response rating, Velvetleaf",velvetleaf; [5],0
same,Velvetleaf plant response rating,velvetleaf; [6],0
same,Velvetleaf plant response rating,velvetleaf; [7],0
same,Wheat plant response rating,wheat; [1],0
same,Wheat plant response rating,wheat; [2],0
same,"Plant response rating, Wheat",wheat; [3],0
same,"Plant response rating, Wheat",wheat; [4],0
same,"Plant response rating, Wheat",wheat; [5],0
same,Wheat plant response rating,wheat; [6],0
same,Wheat plant response rating,wheat; [7],0
same,Giant foxtail plant response rating,giant foxtail; [1],0
same,Giant foxtail plant response rating,giant foxtail; [2],0
same,"Plant response rating, Giant foxtail",giant foxtail; [3],6
same,"Plant response rating, Giant foxtail",giant foxtail; [4],9
same,"Plant response rating, Giant foxtail",giant foxtail; [5],9
same,Giant foxtail plant response rating,giant foxtail; [6],9
same,Giant foxtail plant response rating,giant foxtail; [7],0
same,Giant foxtail plant response rating,giant foxtail; [8],3
same,Cocklebur plant response rating,cocklebur; [1],0
same,Cocklebur plant response rating,cocklebur; [2],0
same,"Plant response rating, Cocklebur",cocklebur; [3],0
same,"Plant response rating, Cocklebur",cocklebur; [4],0
same,"Plant response rating, Cocklebur",cocklebur; [5],0
same,Cocklebur plant response rating,cocklebur; [6],0
same,Cocklebur plant response rating,cocklebur; [7],0
same,Cocklebur plant response rating,cocklebur; [8],0
same,Crabgrass plant response rating,crabgrass; [1],0
same,Crabgrass plant response rating,crabgrass; [2],0
same,"Plant response rating, Crabgrass",crabgrass; [3],0
same,"Plant response rating, Crabgrass",crabgrass; [4],0
same,"Plant response rating, Crabgrass",crabgrass; [5],9
same,Crabgrass plant response rating,crabgrass; [6],9
same,Crabgrass plant response rating,crabgrass; [7],0
same,Crabgrass plant response rating,crabgrass; [8],8
same,B. signalgrass plant response rating,surinam grass; [1],0
same,B. signalgrass plant response rating,surinam grass; [2],0
same,"Plant response rating, B. signalgrass",surinam grass; [3],0
same,"Plant response rating, B. signalgrass",surinam grass; [4],0
same,"Plant response rating, B. signalgrass",surinam grass; [5],0
same,B. signalgrass plant response rating,surinam grass; [6],2
same,B. signalgrass plant response rating,surinam grass; [7],0
same,B. signalgrass plant response rating,surinam grass; [8],0
same,Rape plant response rating,rape; [1],0
same,Rape plant response rating,rape; [2],0
same,"Plant response rating, Rape",rape; [3],0
same,"Plant response rating, Rape",rape; [4],0
same,"Plant response rating, Rape",rape; [5],0
same,Rape plant response rating,rape; [6],0
same,Rape plant response rating,rape; [7],0
same,Rape plant response rating,rape; [8],0
same,Nutsedge plant response rating,purple nutsedge; [1],0
same,Nutsedge plant response rating,purple nutsedge; [2],0
same,"Plant response rating, Nutsedge",purple nutsedge; [3],0
same,"Plant response rating, Nutsedge",purple nutsedge; [4],0
same,"Plant response rating, Nutsedge",purple nutsedge; [5],0
same,Nutsedge plant response rating,purple nutsedge; [6],0
same,Nutsedge plant response rating,purple nutsedge; [7],0
same,Nutsedge plant response rating,purple nutsedge; [8],0
same,Ducksalad plant response rating,duck salad; [1],0
same,Ducksalad plant response rating,duck salad; [9],0
same,Ducksalad plant response rating,duck salad; [10],0
same,Ducksalad plant response rating,duck salad; [11],0
same,Corn plant response rating,corn; [1],0
same,Corn plant response rating,corn; [2],0
same,"Plant response rating, Corn",corn; [3],0
same,"Plant response rating, Corn",corn; [4],0
same,"Plant response rating, Corn",corn; [5],0
same,Corn plant response rating,corn; [6],4
same,Corn plant response rating,corn; [7],0
same,Corn plant response rating,corn; [8],0
same,Sugarbeets plant response rating,sugar beet; [1],0
same,Sugarbeets plant response rating,sugar beet; [2],0
same,"Plant response rating, Sugarbeets",sugar beet; [3],0
same,"Plant response rating, Sugarbeets",sugar beet; [4],0
same,"Plant response rating, Sugarbeets",sugar beet; [5],0
same,Sugarbeets plant response rating,sugar beet; [6],0
same,Sugarbeets plant response rating,sugar beet; [7],0
same,Rice plant response rating,rice; [1],0
same,Rice plant response rating,rice; [9],0
same,Rice plant response rating,rice; [10],0
same,Rice plant response rating,rice; [11],0
same,Morningglory plant response rating,morningglory; [1],1
same,Morningglory plant response rating,morningglory; [2],4
same,"Plant response rating, Morningglory",morningglory; [3],0
same,"Plant response rating, Morningglory",morningglory; [4],0
same,"Plant response rating, Morningglory",morningglory; [5],0
same,Morningglory plant response rating,morningglory; [6],0
same,Morningglory plant response rating,morningglory; [7],2
same,Morningglory plant response rating,morningglory; [8],6
same,Redroot pigweed plant response rating,pigweed; [1],0
same,Redroot pigweed plant response rating,pigweed; [2],3
same,"Plant response rating, Redroot pigweed",pigweed; [3],0
same,"Plant response rating, Redroot pigweed",pigweed; [4],0
same,"Plant response rating, Redroot pigweed",pigweed; [5],0
same,Redroot pigweed plant response rating,pigweed; [6],6
same,Redroot pigweed plant response rating,pigweed; [7],2
same,Redroot pigweed plant response rating,pigweed; [8],6
same,S. Flatsedge plant response rating,smallflower flatsedge; [1],0
same,S. Flatsedge plant response rating,smallflower flatsedge; [10],0
same,S. Flatsedge plant response rating,smallflower flatsedge; [11],0
same,Blackgrass plant response rating,blackgrass; [1],0
same,Blackgrass plant response rating,blackgrass; [2],0
same,"Plant response rating, Blackgrass",blackgrass; [3],0
same,"Plant response rating, Blackgrass",blackgrass; [4],0
same,"Plant response rating, Blackgrass",blackgrass; [5],0
same,Blackgrass plant response rating,blackgrass; [6],2
same,Blackgrass plant response rating,blackgrass; [7],0
same,Blackgrass plant response rating,blackgrass; [8],3
